Legend:
Type in all cases: cell-based, human
[1] = tested on: MMP-9; assay: Gelatin zymography of MMP-9 gelatinolytic activity in conditioned medium of PMA-stimulated HT1080 cells; conditions: 500 μg/mL CGlc, HT1080 cells stimulated with PMA 10 ng/mL
Protocol: MMP-9 activity in HT1080 cells was assayed by gelatin zymography as described previously. For this, approximately 2×10^5 cells/mL HT1080 cells in serum free DMEM medium were seeded in 24-well plates and pre-treated with different concentrations of CGlc for 1 h. MMP-9 expression was stimulated by treatment of PMA (10 ng/mL) and cells were cultured for 48 h. Cell conditioned medium was subjected to substrate gel electrophoresis. Similar amount of protein containing conditioned media were applied without reduction to a 10% (w/v) polyacrylamide gel impregnated with 1 mg/mL gelatin. After electrophoresis, gel was washed in 50 mM Tris-HCl (pH 7.5) containing 2.5% Triton X-100 at room temperature and incubated overnight at 37° C. in zymography developing buffer containing 10 mM CaCI2, 50 mM Tris-HCl, and 150 mM NaCl. The gel was then stained with a […]. In this assay clear zones against the blue background indicate the presence of gelatinolytic activity.
The image of the gel was recorded using Fujifilm Image Reader LAS-3000 software in Science Image System, LAS 3000 (Fujifilm Life Science, Tokyo, Japan). The gelatinolytic activities were quantified using Multi Gauge V3.0 software.
To analyze the inhibition of MMP-9 mediated gelatinolytic activity in conditioned medium stimulated with PMA, we utilized human fibrosarcoma cell line, HT1080. […]

[2] = tested on: HT1080 cells; assay: MTT cell viability (cytotoxicity) assay; conditions: even at 1 mg/mL, 24 h, in the presence and absence of FBS
Protocol: Equal number of HT1080 cells (4000 cells per well) cultured in 96-well plates with serum and serum free media were treated with various concentrations of CGlc for 24 h. Cell viability was then evaluated with the 3-(4,5-dimethyl[…])-2,5-diphenyltetrazolium bromide (MTT) spectrophotometrically (GENios® microplate reader, Tecan Austria GmbH, Austria) which measures conversion of tetrazolium salt in to blue formazan by viable cells.

[3] = tested on: MMP-9; assay: Fluorescence conjugated gelatin digestion assay on conditioned medium of PMA-stimulated HT1080 cells
Protocol: HT1080 cells grown in 24-well plates were treated with different concentrations of CGlc and conditioned media were collected by centrifugation at 13 000×g following PMA (10 ng/mL) treatment. Enzyme activities of conditioned media in 50 mmol/l Tris-HCl buffer (pH 7.5), 0.15 mol/l NaCl, 10 mmol/l CaCl2, 0.02% NaN3 (TNC buffer) containing 0.05% Brij 35 were determined using fluorescence conjugated gelatin peptide (Collagen Technology Corporation, Tokyo, Japan) as the substrate.
Fluoropeptides were incubated with conditioned media at 37° C. for 20 h, and the reaction was terminated by addition of 3% acetic acid. Fluorescence intensity was measured at 495 nm (excitation) and 520 nm (emission) with a GENios® fluorescence microplate reader (Tecan Austria GmbH, Austria).
The MMP-9 inhibitory effect of CGlC on MMP-9 activity stimulated by PMA in HT1080 cells was further confirmed using more sensitive fluorescence conjugated gelatin digestion assay which use fluorescence conjugated gelatin peptides as the substrate for MMP-9. The amount of active gelatinases (MMP-9/-2) present in CGIc treated stimulated conditioned medium obtained from incubation of HT1080 cells was assesssed from the resulting fluorescence activity. […] Therefore it can be presumed that difference in fluorescence intensities were mainly due to activity of MMP-9. […]

[4] = tested on: MMP-9 promoter; assay: MMP-9 promoter luciferase reporter assay in transfected HT1080 cells; conditions: PMA-stimulated transfected HT1080 cells
Protocol: (§1) HT1080 cells cultured in 10 cm culture dishes were transiently transfected with MMP-9 promoter containing pGL3 luciferase reporter vector (Promega, Madison, Wis.) or AP-1 binding site containing luciferase reporter plasmid (Colontech, Palo Alto, […]) by Lipofectamine™ 2000™ reagent (Invitrogen). Beta-galactosidase expression vector co-transfected with the reporter vector to serve as an internal control of transfection efficiency. Transfected cells sub-cultured in 24-well plates were treated with different concentrations of CGlc. Following stimulation with PMA cells were cultured for 24 h. Cells were washed once with cold PBS and lysed with 200 μl/well lysis buffer (25 mM Tri-HCl, pH 8.0, containing 2 mM DDT and 1% Triton-X 100). Aliquots of cell lysate and luciferase substrate (Promega) were mixed in equal amounts in a 96-well plate and luminescence intensity was measured with a luminescence microplate reader (Tecan Austria GmbH, Austria). Beta-galactosidase activity was measured with ONPG buffer. The level of reporter gene expression was determined as a ratio, compared with cells stimulated by PMA (10 ng/mL) alone and represented as relative luciferase activity.
(§2) Transfection efficiency was determined by X-Gal staining method. Briefly, transfected cells were fixed with 0.5% glutaraldehyde and stained with X-Gal solution containing 20 mM K3Fe(CN)6, K4Fe(CN)6 and 1 mM MgCl2. […]

[5] = tested on: AP-1; assay: AP-1 binding site luciferase reporter assay in transfected HT1080 cells; conditions: 500 μg/mL CGlc, PMA-stimulated transfected HT1080 cells
Protocol: as §1, §2

How did the “inhibition of MMP-9 lead gelatinolytic activity” value [1] turn out when Carboxylated glucosamine [CGlc] was run?
The value was “approximately 60%”.

And the “toxicity on HT1080 cells (MTT viability)” value [2]?
Its value is “did not show any toxicity”.

What about the “reduction of fluorescence intensity” value ([3]; 100 μg/mL CGlc) of the same substance?
Its value is “about 50%”.

What about the “decrease of relative fluorescence activity” value ([3]; 500 μg/mL CGlc) of the same substance?
The value was “up to 66%”.

What about the “inhibition of MMP-9-luciferase reporter gene activity” value ([4]; 100 μg/mL CGlc) of the same substance?
The value was “Approximately 50%”.

What about the “inhibition of MMP-9-luciferase reporter gene activity” value ([4]; 500 μg/mL CGlc) of the same substance?
Its value is “approximately 3 fold”.

What about the “suppression of AP-1 reporter activity” value [5] of the same substance?
The value was 2-3 fold.

From US20090240046A1, “CARBOXYLATED GLUCOSAMINE COMPOUNDS FOR INHIBITING THE ACTIVATION AND EXPRESSION OF MATRIX METALLOPROTEINASE-9 IN HUMAN FIBROSARCOMA CELLS AND MATRIX METALLOPROTEINASE-9 INHIBITORS CONTAINING THE SAME” (priority 2006, published 2009)
